Entries after “also recorded” stand apart in the source; their conditions may differ. Read-outs that look alike come from different tables or passages of the source.
How the values were obtained:
menin-MLL interaction [1] = target: T1, menin-MLL interaction (Homo sapiens (Human), UniProt O00255); assay: Fluorescence polarization (FP) competition assay with fluorescein-labeled MLL peptide; type: binding;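 note: Read-out is fluorescence anisotropy of fluorescein-labeled MLL peptide bound to menin, inhibitors displace the peptide and lower anisotropy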
T1 sequence (O00255 whole entry): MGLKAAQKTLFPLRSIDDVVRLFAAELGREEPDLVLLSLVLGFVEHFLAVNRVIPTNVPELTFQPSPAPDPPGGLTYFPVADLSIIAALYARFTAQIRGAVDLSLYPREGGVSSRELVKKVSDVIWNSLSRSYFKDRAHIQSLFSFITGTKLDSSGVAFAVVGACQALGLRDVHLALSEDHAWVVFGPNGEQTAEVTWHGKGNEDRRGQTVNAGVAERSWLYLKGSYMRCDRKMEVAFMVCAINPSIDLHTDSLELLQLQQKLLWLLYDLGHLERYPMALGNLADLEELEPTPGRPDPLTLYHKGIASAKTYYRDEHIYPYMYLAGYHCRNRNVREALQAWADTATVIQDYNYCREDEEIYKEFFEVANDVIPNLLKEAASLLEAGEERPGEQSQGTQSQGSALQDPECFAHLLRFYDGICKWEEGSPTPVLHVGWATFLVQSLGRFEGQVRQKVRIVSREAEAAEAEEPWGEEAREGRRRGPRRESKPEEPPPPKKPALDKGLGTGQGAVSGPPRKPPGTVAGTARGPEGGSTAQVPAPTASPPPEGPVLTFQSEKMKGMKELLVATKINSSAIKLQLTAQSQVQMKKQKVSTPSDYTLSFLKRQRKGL

THP-1 leukemia cells = assay: Differentiation of THP-1 cells, CD11b by flow cytometry; type: cell-based, human
Source text: Thienopyrimidine and benzodiazepine compounds induce differentiation of the MLL leukemia cells.

menin-MLL interaction [2] = target: T1, menin-MLL interaction; settings: 50 μM and 25 μM compound, vs DMSO control
menin-MLL interaction [3] = target: T1, menin-MLL interaction; assay: HTRF (TR-FRET) assay, His-tagged menin and biotinylated MLL peptide; type: binding; settings: Table 3
[4] = test system: human leukemia cell lines with MLL translocations (MV4;11, KOPN-8, THP-1, MonoMac6); assay: MTT viability assay in MLL leukemia cell lines; type: cell-based; settings: in words
Hep-G2 (liver) cell line = assay: MTT viability assay, liver cell line
MV4;11 cells (MLL-AF4) = assay: Annexin V/PI staining flow cytometry
THP-1 cells (MLL-AF9) = assay: Annexin V/PI staining flow cytometry
HK-2 (kidney) cell line = assay: MTT viability assay, kidney cell line
Hoxa9 promoter = assay: Luciferase reporter assay in HEK293 cells transfected with MLL-AF9
[5] = test system: non-MLL leukemia cell lines (Kasumi-1, ME-1); assay: MTT viability assay in non-MLL leukemia cell lines; type: cell-based, human; settings: Kasumi-1 (AML1-ETO), ME-1 (CBFβ-SMMHC)
[6] = test system: mouse bone marrow transduced with MLL-AF9; assay: MTT viability assay, transduced mouse bone marrow; type: cell-based
Source text: (§1) Effects of thienopyrimidine compounds on mouse bone marrow transduced with MLL-AF9 and MLL-ENL.

[7] = test system: mouse bone marrow transduced with MLL-ENL; assay: MTT viability assay, transduced mouse bone marrow; type: cell-based
Source text: as §1

[8] = test system: mouse bone marrow transduced with E2A-HLF; assay: MTT viability assay, transduced mouse bone marrow (negative control); type: cell-based
[9] = test system: Hoxa9 and Meis1 expression; assay: qRT-PCR of MLL downstream targets in THP-1 cells
[10] = Solubility (stated in words); type: physicochemical; settings: relative to Compound 1, in words
[11] = test system: human leukemia cell lines with MLL translocations (MV4;11, ML-2, KOPN-8, Karpas 45); assay: ATP-based luminescence cell viability assay in MLL leukemia cell lines; settings: range over MLL leukemia cell lines
[12] = Table 3, NA = no activity, read-out: IC50 in FP assay with FLSN-MLL

CC(C)c1cc2c(N3CCN(C4=NCC(C)(C)S4)CC3)ncnc2s1 [Compound 67]
IC50 (menin-MLL interaction [1]; Table 2, FP assay, read-out: IC50): 0.65 µM
in vitro activity in FP assay relative to parent Compound 1 (menin-MLL interaction [1]; in words): more potent activity
expression of CD11b on the cell surface (THP-1 leukemia cells): increased expression of CD11b
inhibition of the menin-MLL interaction in cells (co-IP) (menin-MLL interaction [2]): effectively inhibit

CC(=O)N1c2ccccc2NC2=C(C(=O)CC(c3ccc(C(C)(C)C)cc3)C2)C1c1cccnc1 (stereo not drawn) [Compound 32]
IC50 (menin-MLL interaction [1]; [12]): 13 µM
IC50 (menin-MLL interaction [1]; re-tested by FP and HTRF, read-out: IC50 for inhibition of the menin-MLL interaction): 13 µM
IC50 (menin-MLL interaction [3]): 7 µM
growth inhibition of MLL leukemia cells [4]: substantial growth inhibition; also recorded: strongly inhibited growth
expression of CD11b on the cell surface (THP-1 leukemia cells): increased expression of CD11b
toxicity in viability assay (Hep-G2 (liver) cell line): no signs of substantial toxicity
apoptotic cells (MV4;11 cells (MLL-AF4); 25 μM): > 20%
dead cells (MV4;11 cells (MLL-AF4); 25 μM): > 20%
induction of apoptosis and cell death (MV4;11 cells (MLL-AF4); 25 μM and 50 μM, in words): substantial apoptosis and cell death
induction of apoptosis and cell death (THP-1 cells (MLL-AF9); 25 μM and 50 μM, in words): substantial apoptosis and cell death
apoptotic cells (THP-1 cells (MLL-AF9); 50 μM): about 20%
dead cells (THP-1 cells (MLL-AF9); 50 μM): > 40%
toxicity in viability assay (HK-2 (kidney) cell line): no signs of substantial toxicity
transactivation of the Hoxa9 promoter (Hoxa9 promoter): effectively inhibit; also recorded: dose dependent inhibition
inhibition of the menin-MLL interaction in cells (co-IP) (menin-MLL interaction [2]): effectively inhibit

CCCc1cc2c(N3CCN(C4=NCC(C)(C)S4)CC3)ncnc2s1 [Compound 70]
growth inhibition of MLL leukemia cells [4]: Very effective growth inhibition
effect on growth of non-MLL leukemia cell lines [5]: no effect on the cell growth
inhibition of cell growth [6]: substantial inhibition of cell growth
inhibition of cell growth [7]: substantial inhibition of cell growth
inhibition of cell growth [8]: no significant inhibition of cell growth
expression of CD11b on the cell surface (THP-1 leukemia cells): increased expression of CD11b
expression level of Hoxa9 and Meis1 [9]: Downregulation
inhibition of the menin-MLL interaction in cells (co-IP) (menin-MLL interaction [2]): effectively inhibit

CCc1cc2c(N3CCN(c4nnc(CC)s4)CC3)ncnc2s1 [Compound 4]
solubility [10]: improved solubility
GI50 [11]: 7 to 25 µM
toxicity in viability assay (Hep-G2 (liver) cell line): no substantial signs of toxicity
toxicity in viability assay (Hep-G2 (liver) cell line; listed as Compounds 4): no signs of substantial toxicity
toxicity in viability assay (HK-2 (kidney) cell line): no substantial signs of toxicity
toxicity in viability assay (HK-2 (kidney) cell line; listed as Compounds 4): no signs of substantial toxicity

O=C1CC(c2ccc3c(c2)OCO3)CC2=C1C(c1ccncc1)Nc1ccccc1N2 (stereo not drawn) [Compound 39]
IC50 (menin-MLL interaction [1]; [12]): 230 µM
growth inhibition of MLL leukemia cells [4]: no effect; also recorded: no growth inhibition
transactivation of the Hoxa9 promoter (Hoxa9 promoter): No effect

From patent publication US8993552B2, “Compositions and methods for treatment of leukemia” (The Regents of The University of Michigan, priority 2009, dated 2015)
